In doi:10.1101/871186v1 (bioRxiv, 2019):

How the values were obtained:
[1] = tested on: neurons (NeuN), astrocytes (GFAP), microglia (TMEM), lysosomes (LAMP1), early endosomes (EEA1); assay type: in vivo; settings: mouse brain sections after IV Cy5-MTfp, 3D confocal
[2] = tested on: in vitro bovine BBB model (primary bovine brain capillary endothelial cells supported by primary rat glial cells); test: In vitro BBB model transcytosis assay of MTf fragments and peptides; assay type: in vitro ADME
[3] = Tissue distribution of intact MTfp by LCMS; assay type: in vivo, mouse (CD1)

- MTFp found in the early endosomes ([1]; EEA1 marker): approximately 20%
- MTFp found in the lysosomes ([1]; LAMP1 marker): 40%
- Abluminal vs. Total ([2]; T = 120, abluminal compared to initial concentration): 1.90%
- Abluminal vs. Luminal ([2]; T = 120, measure of transcytosis efficiency): 2.41%
- initial rate of transport, kidney ([3]; from 30-minute concentration): 9.9 nM/min
- initial rate of transport, liver ([3]; from 30-minute concentration): 7.3 nM/min
- initial rate of transport into the brain ([3]; slope of time vs concentration, 0 and 30-minute time points, protocol of Bickel): ~2 nM/min
Sequence: DSSHAFTLDELR [MTfp]
